Source: PMC7708037, “Targeting OGG1 arrests cancer cell proliferation by inducing replication stress” (Nucleic Acids Research, 2020)

Assays:
[1] = system: OGG1 substrate lesions in A3 cells; assay: OGG1-modified Comet assay; type: cell-based, human; settings: 10 μM, 72 h
Description: 8-oxodG detection in genomic DNA through LC–MS/MS ([39]) and single-cell electrophoresis ([40]) were performed as described.
Figure 5. Effect of TH5487 on DNA lesions, DNA damage markers and DNA replication. (A) 8-oxodG accumulation in A3 cells. A3 cells were treated with 20 mM KBrO3 for 1 h or with 10 μM TH5487 for the indicated times, and the amount of genomic 8-oxodG was quantified with LC-MS/MS. Data are average ±SD of five replicates from two independent experiments. (B) Comet assay. A3 cells were treated with 10 μM TH5487 for 72 h and strand-breaks and OGG1 substrate lesions were analyzed with the OGG1-modified Comet assay. Representative images of cells are shown. (C) Violin blot of Comet tail moment. Cells were treated as in B, and the tail moment of the cells were analyzed using blinded automatic analysis (n = 200 per condition from two independent experiments). The full line indicates median, and the dotted lines quartiles. (D) Violin blot of phosphorylated γH2AX intensity. A3 cells were treated with 0.1% DMSO or 10 μM TH5487 for the indicated times and stained for phosphorylated γH2AX. […] At least 33 000 nuclei per group were quantified from three independent experiments. […] At least 300 forks were scored per condition. Statistical significance was determined using unpaired, two-sided t-tests (**P < 0.01, ***P < 0.001 and ****P < 0.0001; ns, non-significant).

[2] = system: Ogg1−/− mouse embryonic fibroblasts; assay: Colony formation assay; type: cell-based; settings: up to 20 μM
Description: The indicated concentrations TH5487 were spotted in 6-well plates using a Tecan D300e digital dispenser. 200–500 cells/well H460, ACHN, Ogg1^−/− mouse embryonic fibroblasts and MRC5 cells were then seeded at 200–500 cells/well and incubated for 7–11 days. Colonies exceeding 50 cells were fixed, stained and enumerated as above.
Figure 3. The OGG1 inhibitor TH5487 is selectively toxic to oncogene-expressing cells and cancer cell lines. (A) Close-up view of ligand TH5487 (green) binding to human OGG1. Important residues in the binding site are marked, hydrogen bond interactions are shown in black dashed line, water (red sphere)-mediated interactions in grey dashed line. (B) Comparison between the binding of ligand TH5487 (green) to human OGG1 (gray) with the structure of TH5675 (pink) bound to mouse OGG1 (yellow, PDB 6G3Y). (C) Viability of BJ-Tert and BJ-Ras cells exposed to the indicated concentrations TH5487 for five days. Data are average ±SD of four technical replicates from two independent experiments. (D) Clonogenic survival of cell lines exposed to TH5487. The cancer cell lines ACHN and H460, and the non-transformed cell lines MRC5 and Ogg1^−/− mouse embryonic fibroblasts (MEF) were incubated for 6–11 days in the presence of the indicated concentrations TH5487, followed by colony enumeration. […]

[3] = system: replication fork rate in A3 cells; assay: DNA fibre assay; type: cell-based, human; settings: 10 μM, 48 and 72 h
Description: A3 Cells were exposed to either 0.1% DMSO or 10 μM TH5487 for the indicated times, pulse-labeled with 25 μM 5-chloro-2′-deoxyuridine (CldU) for 30 min, washed with medium and pulse-labeled with 250 μM 5-iodo-2′-deoxyuridine (IdU) for 30 min. Alternatively, control or OGG1 shRNA expression was induced with 1 μg/ml doxycyline for 48 h or 96 h before pulse labelling. CldU was detected by incubating acid-treated fiber spreads in Ibidi μ-Slide VI 0.4 (Ibidi, 80606) with rat anti-BrdU monoclonal antibody (AbD Serotec; cat# MCA2060), whereas IdU was detected using mouse anti-BrdU monoclonal antibody (BD Biosciences; cat# 347580) for 1 h at 37°C. […] The lengths of red (AF 555) or green (AF 488) labeled patches were measured using the ImageJ software (National Institutes of Health; http://rsbweb.nih.gov/ij/) and arbitrary length values were converted into micrometers.
Figure 5. […] A3 cells were treated with 20 mM KBrO3 for 1 h or with 10 μM TH5487 for the indicated times, and the amount of genomic 8-oxodG was quantified with LC-MS/MS. […] A3 cells were treated with 10 μM TH5487 for 72 h and strand-breaks and OGG1 substrate lesions were analyzed with the OGG1-modified Comet assay. […] Cells were treated as in B, and the tail moment of the cells were analyzed using blinded automatic analysis (n = 200 per condition from two independent experiments). […] At least 300 forks were scored per condition. […]

## O=C(Nc1ccc(I)cc1)N1CCC(n2c(=O)[nH]c3c(Br)cccc32)CC1 [TH5487]
[1]
  Increase in OGG1-induced tail length (Comet): ~50%
[2]
  Clonogenic potential: unaffected
[3]
  Replication fork rate: marked reduction
